{"source": "patent US20090143279A1", "about": "(priority 2007, published 2009)", "key": {"cytochrome c": {"system": "cytochrome c", "sequence (P62897 whole entry)": "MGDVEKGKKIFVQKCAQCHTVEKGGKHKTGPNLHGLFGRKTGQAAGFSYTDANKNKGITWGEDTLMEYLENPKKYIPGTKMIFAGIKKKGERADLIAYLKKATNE", "assay_type": "cell-based, mouse"}, "nuOXPHOS transcripts": {"system": "nuOXPHOS transcripts", "assay_type": "cell-based, mouse"}, "[1]": {"system": "cellular dehydrogenase activity"}, "OXPHOS gene expression": {"system": "OXPHOS gene expression", "assay_type": "cell-based, mouse"}, "mtOXPHOS transcripts": {"system": "mtOXPHOS transcripts", "assay_type": "cell-based, mouse"}, "[2]": {"system": "mitochondrial membrane potential", "assay_type": "cell-based, mouse"}, "reactive oxygen species": {"system": "reactive oxygen species", "assay_type": "cell-based, mouse"}, "[3]": {"settings": "20 μM, composite Z-score vs DMSO"}, "[4]": {"settings": "24.06 μM, composite Z-score vs DMSO"}, "[5]": {"settings": "normalized composite Z-score vs mock-treated (DMSO) wells, Conc 20 μM"}, "[6]": {"settings": "Table 6, C2C12 myotubes, 48 h, composite Z-score"}, "[7]": {"settings": "composite Z-score vs DMSO wells, Conc 20 μM"}, "[8]": {"settings": "Conc 20 μM, normalized score vs mock-treated (DMSO) wells"}, "[9]": {"settings": "composite Z-score vs DMSO, Conc 20 μM"}}, "note": "Like-named read-outs stand apart in the source and are kept apart here.", "data": [{"molecule": "COC1=C[C@@H](C)[C@@H]2C[C@H]3OC(=O)C[C@H]4C(C)=C(OC)C(=O)[C@H]([C@@]2(C)C1=O)[C@@]34C", "note": "[quassin, reference compound]", "values": [{"measurement": "Viability", "setting": "C2C12 myotubes; [3]", "value": "−0.688"}, {"measurement": "cyt c", "setting": "cytochrome c; [3]", "value": "−0.233"}, {"measurement": "nucOX", "setting": "nuOXPHOS transcripts; [3]", "value": 0.205}, {"measurement": "MTT", "setting": "[1]; [3]", "value": "−0.400"}, {"measurement": "GE-HTS", "setting": "OXPHOS gene expression; [3]", "value": 0.095}, {"measurement": "mitoOX", "setting": "mtOXPHOS transcripts; [3]", "value": "−0.168"}, {"measurement": "ΔΨm", "setting": "[2]; [3]", "value": 0.033}, {"measurement": "ROS", "setting": "reactive oxygen species; [3]", "value": 0.925}]}, {"molecule": "CC[N+](C)(C)c1cccc(O)c1", "note": "[edrophonium]", "values": [{"measurement": "Viability", "setting": "C2C12 myotubes; [3]", "value": "−0.291"}, {"measurement": "Viability", "setting": "C2C12 myotubes; [4]", "value": 0.250}, {"measurement": "cyt c", "setting": "cytochrome c; [3]", "value": 1.045}, {"measurement": "cyt c", "setting": "cytochrome c; [4]", "value": 0.177}, {"measurement": "nucOX", "setting": "nuOXPHOS transcripts; [3]", "value": "−1.001"}, {"measurement": "nucOX", "setting": "nuOXPHOS transcripts; [4]", "value": "−0.611"}, {"measurement": "MTT", "setting": "[1]; [3]", "value": "−0.015"}, {"measurement": "MTT", "setting": "[1]; [4]", "value": 0.901}, {"measurement": "GE-HTS", "setting": "OXPHOS gene expression; [3]", "value": "−0.806"}, {"measurement": "GE-HTS", "setting": "OXPHOS gene expression; [4]", "value": "−0.803"}, {"measurement": "mitoOX", "setting": "mtOXPHOS transcripts; [3]", "value": "−0.183"}, {"measurement": "mitoOX", "setting": "mtOXPHOS transcripts; [4]", "value": "−1.083"}, {"measurement": "ΔΨm", "setting": "[2]; [3]", "value": 0.391}, {"measurement": "ΔΨm", "setting": "[2]; [4]", "value": "−0.161"}, {"measurement": "ROS", "setting": "reactive oxygen species; [3]", "value": 1.006}, {"measurement": "ROS", "setting": "reactive oxygen species; [4]", "value": 0.343}]}, {"molecule": "C=C[C@@](C)(O)CCC1C(=C)CCC2[C@@](C)(CO)CCC[C@]12C", "note": "(stereo partly drawn) [epi(13)torulosol]", "values": [{"measurement": "Viability", "setting": "C2C12 myotubes; [5]", "value": 0.367}, {"measurement": "cyt c", "setting": "cytochrome c; [5]", "value": 0.483}, {"measurement": "nucOX", "setting": "nuOXPHOS transcripts; [5]", "value": 0.342}, {"measurement": "MTT", "setting": "[1]; [5]", "value": 0.603}, {"measurement": "GE-HTS", "setting": "OXPHOS gene expression; [5]", "value": 0.491}, {"measurement": "mitoOX", "setting": "mtOXPHOS transcripts; [5]", "value": 0.643}, {"measurement": "ΔΨm", "setting": "[2]; [5]", "value": 0.022}, {"measurement": "ROS", "setting": "reactive oxygen species; [5]", "value": 1.180}]}, {"molecule": "CC1(C)CC2C1CC[C@]1(CBr)CCC3C(CC(=O)O)C(=O)O[C@@]32C1", "note": "(some centres unmarked)", "values": [{"measurement": "Viability", "setting": "C2C12 myotubes; [5]", "value": "−0.498"}, {"measurement": "cyt c", "setting": "cytochrome c; [5]", "value": 0.551}, {"measurement": "nucOX", "setting": "nuOXPHOS transcripts; [5]", "value": "−0.612"}, {"measurement": "MTT", "setting": "[1]; [5]", "value": "−0.892"}, {"measurement": "GE-HTS", "setting": "OXPHOS gene expression; [5]", "value": "−1.029"}, {"measurement": "mitoOX", "setting": "mtOXPHOS transcripts; [5]", "value": "−1.624"}, {"measurement": "ΔΨm", "setting": "[2]; [5]", "value": "−0.084"}, {"measurement": "ROS", "setting": "reactive oxygen species; [5]", "value": 0.604}]}, {"molecule": "COc1ccc2c(c1)OCC(Cc1ccc(OC)c(OC)c1)C2O", "note": "(centres unmarked) [3-deshydroxysappanol trimethyl ether, reference compound]", "values": [{"measurement": "Viability", "setting": "C2C12 myotubes; [5]", "value": 0.416}, {"measurement": "cyt c", "setting": "cytochrome c; [5]", "value": "−0.948"}, {"measurement": "nucOX", "setting": "nuOXPHOS transcripts; [5]", "value": 0.557}, {"measurement": "MTT", "setting": "[1]; [5]", "value": "−0.416"}, {"measurement": "GEHTS_Zscore", "setting": "OXPHOS gene expression; [6]", "value": 1.970}, {"measurement": "GE-HTS", "setting": "OXPHOS gene expression; [5]", "value": 0.465}, {"measurement": "mitoOX", "setting": "mtOXPHOS transcripts; [5]", "value": 0.224}, {"measurement": "ΔΨm", "setting": "[2]; [5]", "value": 0.033}, {"measurement": "ROS Zscore", "setting": "reactive oxygen species; [6]", "value": 1.3852}, {"measurement": "ROS", "setting": "reactive oxygen species; [5]", "value": 1.385}]}, {"molecule": "CNCCc1ccccn1", "note": "[betahistine]", "values": [{"measurement": "Viability", "setting": "C2C12 myotubes; [7]", "value": 1.068}, {"measurement": "cyt c", "setting": "cytochrome c", "value": 0.296}, {"measurement": "cyt c", "setting": "cytochrome c; [7]", "value": 0.386}, {"measurement": "nucOX", "setting": "nuOXPHOS transcripts; [7]", "value": "−0.008"}, {"measurement": "MTT", "setting": "[1]; [7]", "value": 0.861}, {"measurement": "GE-HTS", "setting": "OXPHOS gene expression; [7]", "value": "−0.284"}, {"measurement": "mitoOX", "setting": "mtOXPHOS transcripts; [7]", "value": "−0.718"}, {"measurement": "ΔΨm", "setting": "[2]; [7]", "value": 0.125}, {"measurement": "ROS", "setting": "reactive oxygen species; [7]", "value": "−0.176"}]}, {"molecule": "COC(=O)[C@@H]1OC(=O)[C@H]2O[C@@]23[C@@]1(C)CCC1[C@@]2(C)CCC(=O)C(C)(C)C2C[C@@H](OC(C)=O)[C@]13C", "note": "(some centres unmarked) [dihydrogeduninic acid, methyl ester]", "values": [{"measurement": "Viability (composite Z-score)", "setting": "C2C12 myotubes; [8]", "value": 0.488}, {"measurement": "cyt c (composite Z-score)", "setting": "cytochrome c; [8]", "value": 0.117}, {"measurement": "nucOX (composite Z-score)", "setting": "nuOXPHOS transcripts; [8]", "value": 0.881}, {"measurement": "MTT (composite Z-score)", "setting": "[1]; [8]", "value": "−1.004"}, {"measurement": "GE-HTS (composite Z-score)", "setting": "OXPHOS gene expression; [8]", "value": 0.739}, {"measurement": "mitoOX (composite Z-score)", "setting": "mtOXPHOS transcripts; [8]", "value": 0.289}, {"measurement": "ΔΨm (composite Z-score)", "setting": "[2]; [8]", "value": "−0.571"}, {"measurement": "ROS (composite Z-score)", "setting": "reactive oxygen species; [8]", "value": 0.820}]}, {"molecule": "O=c1c(-c2cc(O)c(O)c(O)c2)coc2cc(O)c(O)c(O)c12", "note": "[irigenol]", "values": [{"measurement": "Viability", "setting": "C2C12 myotubes; [9]", "value": 0.249}, {"measurement": "cyt c", "setting": "cytochrome c; [9]", "value": 0.410}, {"measurement": "nucOX", "setting": "nuOXPHOS transcripts; [9]", "value": "−0.838"}, {"measurement": "MTT", "setting": "[1]; [9]", "value": "−0.810"}, {"measurement": "GE-HTS", "setting": "OXPHOS gene expression; [9]", "value": "−1.274"}, {"measurement": "mitoOX", "setting": "mtOXPHOS transcripts; [9]", "value": "−1.938"}, {"measurement": "ΔΨm", "setting": "[2]; [9]", "value": "−0.374"}, {"measurement": "ROS", "setting": "reactive oxygen species; [9]", "value": "−1.001"}]}, {"molecule": "CC(=O)O[C@@H]1C[C@H]2C(C)(C)[C@H](O)C[C@H](O)[C@]2(C)[C@H]2CC[C@@]3(C)[C@H](c4ccoc4)OC(=O)[C@H]4O[C@]43[C@@]21C", "note": "[1,3-dideacetylkhivorin]", "values": [{"measurement": "Viability", "setting": "C2C12 myotubes; [9]", "value": 0.507}, {"measurement": "cyt c", "setting": "cytochrome c; [9]", "value": 0.887}, {"measurement": "nucOX", "setting": "nuOXPHOS transcripts; [9]", "value": "−0.349"}, {"measurement": "MTT", "setting": "[1]; [9]", "value": "−0.622"}, {"measurement": "GE-HTS", "setting": "OXPHOS gene expression; [9]", "value": "−0.693"}, {"measurement": "mitoOX", "setting": "mtOXPHOS transcripts; [9]", "value": "−1.275"}, {"measurement": "ΔΨm", "setting": "[2]; [9]", "value": 0.051}, {"measurement": "ROS", "setting": "reactive oxygen species; [9]", "value": 0.963}]}, {"molecule": "COc1cc(/C=C/C(=O)O)cc(OC)c1OC", "note": "[sinapic acid methyl ether]", "values": [{"measurement": "Viability", "setting": "C2C12 myotubes", "value": "−0.934"}, {"measurement": "cyt c", "setting": "cytochrome c", "value": 0.207}, {"measurement": "nucOX", "setting": "nuOXPHOS transcripts", "value": "−1.058"}, {"measurement": "MTT", "setting": "[1]", "value": "−0.736"}, {"measurement": "GE-HTS", "setting": "OXPHOS gene expression", "value": "−1.103"}, {"measurement": "mitoOX", "setting": "mtOXPHOS transcripts", "value": "−1.015"}, {"measurement": "ΔΨm", "setting": "[2]", "value": "−0.716"}, {"measurement": "ROS", "setting": "reactive oxygen species", "value": 0.722}]}, {"molecule": "COc1ccc2c(c1)C1(C)CCC(=O)CC1CC2", "note": "(centres unmarked)", "values": [{"measurement": "Viability", "setting": "C2C12 myotubes; [5]", "value": "−0.071"}, {"measurement": "cyt c", "setting": "cytochrome c; [5]", "value": 0.380}, {"measurement": "nucOX", "setting": "nuOXPHOS transcripts; [5]", "value": "−0.582"}, {"measurement": "MTT", "setting": "[1]; [5]", "value": "−2.008"}, {"measurement": "GE-HTS", "setting": "OXPHOS gene expression; [5]", "value": "−0.632"}, {"measurement": "mitoOX", "setting": "mtOXPHOS transcripts; [5]", "value": "−0.652"}, {"measurement": "ΔΨm", "setting": "[2]; [5]", "value": "−0.173"}, {"measurement": "ROS", "setting": "reactive oxygen species; [5]", "value": 1.860}]}, {"molecule": "estrone hemisuccinate", "values": [{"measurement": "Viability", "setting": "C2C12 myotubes; [7]", "value": "−0.076"}, {"measurement": "cyt c", "setting": "cytochrome c; [7]", "value": 0.250}, {"measurement": "nucOX", "setting": "nuOXPHOS transcripts; [7]", "value": 0.370}, {"measurement": "MTT", "setting": "[1]; [7]", "value": "−0.686"}, {"measurement": "GE-HTS", "setting": "OXPHOS gene expression; [7]", "value": 0.261}, {"measurement": "mitoOX", "setting": "mtOXPHOS transcripts; [7]", "value": "−0.003"}, {"measurement": "ΔΨm", "setting": "[2]; [7]", "value": "−0.573"}, {"measurement": "ROS", "setting": "reactive oxygen species; [7]", "value": 0.834}]}]}
